Test results: patent US12201632B2, “Levoketoconazole for treatment of congenital adrenal hyperplasia and primary aldosteronism” (Strongbridge Dublin Limited, priority 2018, dated 2025)

Tests used:
[1] = test system: primary human corticotroph pituitary adenoma cultures; assay: ACTH secretion corrected for cell number in primary corticotroph pituitary adenoma cultures; assay type: cell-based; conditions: both primary pituitary adenoma cultures, 1 μM, 7 days
Procedure: To obtain primary cultures, adrenal specimens (adrenocortical adenomas, adrenal hyperplasias and adrenocortical carcinomas) were collected after adrenalectomy at the department of Surgery, Erasmus University Medical Center, Rotterdam, the Netherlands, between April 2016 and May 2018. The study was conducted under guidelines that have been approved by the Medical Ethics Committee of the Erasmus Medical Center and informed consent was obtained from all patients. Immediately after surgery, specimens were minced into small pieces of 2-3 mm^3, washed in culture medium and centrifuged for 5 minutes at 600 g. The tissue was stored overnight in culture medium at 4° C., where after the tissue was centrifuged again and the supernatant was removed. Fragments were dissociated using 10-25 ml collagenase type 1 (2 mg/ml: Sigma-Aldrich), followed by incubation at 37° C. for up to two hours. […] Cell viability and cell amount were counted by trypan blue exclusion. […]
At the end of the AtT20 and primary pituitary adenoma culture experiments, medium was collected and supplemented with 1% of the protease inhibitor Trasylol to prevent degradation of ACTH. ACTH was measured using a commercially available, nonisotopic automatic chemiluminescence system (DPC Immulite).

[2] = test system: EAS associated adrenal hyperplasia no. 1 primary culture; assay: Steroid profile by LC/MS-MS in EAS associated adrenal hyperplasia no. 1; assay type: cell-based, human; conditions: EAS associated adrenal hyperplasia no. 1, ACTH, 3 days
Procedure: To obtain primary cultures, adrenal specimens (adrenocortical adenomas, adrenal hyperplasias and adrenocortical carcinomas) were collected after adrenalectomy at the department of Surgery, Erasmus University Medical Center, Rotterdam, the Netherlands, between April 2016 and May 2018. The study was conducted under guidelines that have been approved by the Medical Ethics Committee of the Erasmus Medical Center and informed consent was obtained from all patients. Immediately after surgery, specimens were minced into small pieces of 2-3 mm^3, washed in culture medium and centrifuged for 5 minutes at 600 g. The tissue was stored overnight in culture medium at 4° C., where after the tissue was centrifuged again and the supernatant was removed. Fragments were dissociated using 10-25 ml collagenase type 1 (2 mg/ml: Sigma-Aldrich), followed by incubation at 37° C. for up to two hours. Ficoll (GE healthcare) density gradient separation was used once or twice as required in order to separate contaminating red blood cells from the tumor cells. Cell viability and cell amount were counted by trypan blue exclusion. Dissociated cells were plated at a density of 10^5 cells per well. ACTH-secreting corticotroph pituitary adenoma tissue from patients with Cushing's disease (n=2) was available after transsphenoidal surgery. Single-cell suspensions of the pituitary adenoma tissues were prepared as previously described in detail.
Primary culture conditions for primary cultures were similar as described in the section ‘cell culture and compounds’, but with small adjustments: ACTH was used at a concentration of 85 pM (250 pg/mL), treatment was started 3-4 days after plating of the cells and cells were incubated for 3 days, and; for pituitary primary cultures, levoketoconazole and racemic ketoconazole were only tested at a concentration of 1 μM. Owing to a limited number of cells obtained from the specimens, not all experiments were carried out in every primary culture.
Cortisol concentrations were measured in the supernatant using a chemiluminescence immunoassay system (Immulite 2000XPi; Siemens DPC Inc., Los Angeles, Calif., USA). In addition, we carried out multi-steroid analysis by liquid chromatography/mass spectrometry (LC/MS-MS) to accurately quantify androstenedione, corticosterone, cortisol, 11-deoxycortisol, DHEA, DHEAS, progesterone, 17-hydroxyprogesterone, and testosterone. Concentrations that were tested on the LC/MS-MS were closest to 50% inhibition or maximal inhibition of cortisol as determined by the immunoassay. Steroids were quantified with respect to a calibration series, with internal standards. Steroids were quantified on a Xevo TQS LC-MS/MS (Waters Chromatography).
Statistical analysis was performed using Graphpad Prism 6.0 (Graphpad Software, San Diego, CA). Non-linear regression curve fitting program was used to calculate the half maximal inhibitory concentrations (IC50) on cortisol production. Effects of both compounds on the steroid profile were measured as absolute change compared to control and compared using the Student's t-test. When assessing differences between effects of both compounds, the percentage change was evaluated and compared in order to correct for differences in the vehicle treated control cells. Values of P<0.05 were considered statistically significant and data are presented as mean SEM.

For `CC(=O)N1CCN(c2ccc(OC[C@@H]3CO[C@@](Cn4ccnc4)(c4ccc(Cl)cc4Cl)O3)cc2)CC1` (relative stereo) [levoketoconazole, 2S,4R cis-1-acetyl-4-[4-[[2-(2,4-dichlorophenyl)-2-(1H-imidazol-1-ylmethyl)-1,3-dioxolan-4-yl]methoxyl]phenyl]piperazine], the “effects on ACTH secretion corrected for cell number” value [1] was “No effects”, the “11-DOC absolute change vs ACTH stimulation with vehicle” value (“11-DOC absolute change” for short) ([2]; 0.05 μM) was “did not change” and the “11-DOC percentage change vs ACTH stimulation with vehicle” value ([2]; 0.05 μM) was “(+1.6%)”. The “17-OHP absolute change vs ACTH stimulation with vehicle” value (“17-OHP absolute change” for short) ([2]; 0.05 μM) was “+8.300 nmol/l”, the “17-OHP percentage change vs ACTH stimulation with vehicle” value (“17-OHP percentage change” for short) ([2]; 0.05 μM) was “+41%” and the “Androstenedione absolute change vs ACTH stimulation with vehicle” value (shortened to “Androstenedione absolute change”) ([2]; 0.05 μM) was -9.600 nmol/L. The “Androstenedione percentage change vs ACTH stimulation with vehicle” value (shortened to “Androstenedione percentage change”) ([2]; 0.05 μM) was −50%, the “Corticosterone absolute change vs ACTH stimulation with vehicle” value (“Corticosterone absolute change” for short) ([2]; 0.05 μM) was “+97.95 nmol/l” and the “Corticosterone percentage change vs ACTH stimulation with vehicle” value (“Corticosterone percentage change” for short) ([2]; 0.05 μM) was “+29%”. For the same compound, the “Cortisol absolute change vs ACTH stimulation with vehicle” value (shortened to “Cortisol absolute change”) ([2]; 0.05 μM) was -234.8 nmol/L, the “Cortisol percentage change vs ACTH stimulation with vehicle” value (“Cortisol percentage change” below) ([2]; 0.05 μM) was −37% and the “DHEA absolute change vs ACTH stimulation with vehicle” value ([2]; 0.05 μM) was “<LLQ”. The “DHEAS absolute change vs ACTH stimulation with vehicle” value ([2]; 0.05 μM) was “<LLQ”, the “Prog absolute change vs ACTH stimulation with vehicle” value ([2]; 0.05 μM) was “+6.025 nmol/l” and the “Prog percentage change vs ACTH stimulation with vehicle” value ([2]; 0.05 μM) was “+167%”. For the same compound, the “Testosterone absolute change vs ACTH stimulation with vehicle” value ([2]; 0.05 μM) was -0.3250 nmol/L, the “Testosterone percentage change vs ACTH stimulation with vehicle” value ([2]; 0.05 μM) was −45% and the “11-DOC absolute change” value ([2]; 0.05 μM, listed as LK) was -6.000 nmol/L. The “17-OHP absolute change” value ([2]; 0.05 μM, listed as LK) was “+8.300 nmol/l”, the “17-OHP percentage change” value ([2]; 0.05 μM, listed as LK) was “(+41%)” and the “Androstenedione absolute change” value ([2]; 0.05 μM, listed as LK) was -9.600 nmol/L. For the same compound, the “Androstenedione percentage change” value ([2]; 0.05 μM, listed as LK) was “(−50%)”, the “Corticosterone absolute change” value ([2]; 0.05 μM, listed as LK) was 97.95 nmol/L and the “Corticosterone percentage change” value ([2]; 0.05 μM, listed as LK) was “(+29%)”. For the same compound, the “Cortisol absolute change” value ([2]; 0.05 μM, listed as LK) was -234.8 nmol/L, the “Cortisol percentage change” value ([2]; 0.05 μM, listed as LK) was “(−37%)” and the “Prog percentage change vs ACTH stimulation with vehicle” value ([2]; 0.05 μM, listed as LK) was “(+167%)”. The “Testosterone absolute change vs ACTH stimulation with vehicle” value ([2]; 0.05 μM, listed as LK) was -0.3250 nmol/L, the “Testosterone percentage change vs ACTH stimulation with vehicle” value ([2]; 0.05 μM, listed as LK) was “(−45%)” and the “11-DOC absolute change” value ([2]; 5 μM) was -435.4 nmol/L. The “11-DOC percentage change vs ACTH stimulation with vehicle” value ([2]; 5 μM) was “(−99%)”, the “17-OHP absolute change” value ([2]; 5 μM) was -31.55 nmol/L and the “17-OHP percentage change” value ([2]; 5 μM) was “(−90%)”. For the same compound, the “Androstenedione absolute change” value ([2]; 5 μM) was -15.19 nmol/L, the “Androstenedione percentage change” value ([2]; 5 μM) was “(−98%)” and the “Corticosterone absolute change” value ([2]; 5 μM) was -373.7 nmol/L. For the same compound, the “Corticosterone percentage change” value ([2]; 5 μM) was “(−100%)”, the “Cortisol absolute change” value ([2]; 5 μM) was -640.2 nmol/L and the “Cortisol percentage change” value ([2]; 5 μM) was “(−100%)”. The “DHEA absolute change vs ACTH stimulation with vehicle” value ([2]; 5 μM) was “<LLQ”, the “DHEAS absolute change vs ACTH stimulation with vehicle” value ([2]; 5 μM) was “<LLQ” and the “Prog absolute change vs ACTH stimulation with vehicle” value ([2]; 5 μM) was “+37.66 nmol/l”.
